Measured values published in paper PMC8468024, “PTP1B Inhibitory Secondary Metabolites from an Antarctic Fungal Strain Acremonium sp. SF-7394” (Molecules, 2021).

Target: T1, protein tyrosine phosphatase 1B (PTP1B) (Homo sapiens, UniProt P18031)
T1 construct: gene PTPN1
T1 sequence (P18031 1-435): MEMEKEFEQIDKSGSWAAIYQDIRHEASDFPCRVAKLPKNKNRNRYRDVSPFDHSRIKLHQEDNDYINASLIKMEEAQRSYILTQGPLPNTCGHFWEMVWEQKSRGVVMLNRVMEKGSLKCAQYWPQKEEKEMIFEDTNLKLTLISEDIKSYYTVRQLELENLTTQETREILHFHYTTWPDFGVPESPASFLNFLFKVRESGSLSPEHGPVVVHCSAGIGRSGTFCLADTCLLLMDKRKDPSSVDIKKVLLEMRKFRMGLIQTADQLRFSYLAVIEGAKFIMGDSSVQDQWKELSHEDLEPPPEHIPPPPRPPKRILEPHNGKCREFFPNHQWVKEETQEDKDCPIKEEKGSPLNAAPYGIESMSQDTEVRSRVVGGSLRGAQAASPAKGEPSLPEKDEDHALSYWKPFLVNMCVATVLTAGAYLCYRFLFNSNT
Test: p-NPP hydrolysis assay with recombinant enzyme; Lineweaver–Burk kinetics
Assay type: biochemical

IC50: 22.8 ± 1.1 µM
Structure (SMILES): CC(C)C[C@@H]1C[C@H](C)[C@@H]2CC[C@H](C)c3ccc(CO)c1c32 [compound 1, acrepseudoterin]
